Key:
[1] = test system: P-selectin; test: EC P-selectin expression by specific binding of 125I anti-P-selectin antibody; format: cell-based, human; settings: cycloheximide 10 μg/mL given at onset of H, 4 hour time point
Procedure: (§1) Measurement of Weibel-Palade body exocytosis: ECs were plated into 24 well plates, rinsed 3 times with Hank's balanced salt solution, and then exposed to hypoxia or to normoxia for the indicated durations. For experiments in which vWF was measured, cells were maintained in serum-free medium. All other EC experiments were performed in the EC growth medium described above. […] EC P-selectin expression was determined by measuring the specific binding of a murine monoclonal anti-human P-selectin antibody (WAPS 12.2 clone, Endogen, Cambridge, Mass.; this is an IgGl which recognizes a calcium sensitive epitope and blocks P-selectin dependent neutrophil adhesion. Antibody was radiolabelled with ^125I by the lactoperoxidase method (19) using Enzymobeads (Bio-Rad, Hercules, Calif.), stored at 4° C. and used within one week of labelling. Binding assays were performed on HUVECs plated on 96 well plates, in which fresh M199 with 0.1% bovine serum albumin (Sigma, St. Louis, Mo.) was added immediately prior to each experiment. […] After binding for 1 hour at 37° C., monolayers were washed 4 times with HBSS/A, and bound antibody was eluted with 1% triton X-100 in PBS (200 μL/well) and counted. […] Following 4 hours of normoxic exposure, trichloroacetic acid-precipitable material was collected and counted.

[2] = test system: ECs; test: Protein synthesis: 35S-methionine/cysteine in trichloroacetic acid-precipitable material; format: cell-based; settings: Homo sapiens; 10 μg/mL, 4 hrs
Procedure: as §1

[3] = test system: Human umbilical vein ECs; test: vWF release from hypoxic endothelial cells (ELISA); format: cell-based; settings: cycloheximide 10 μg/ml added at start of hypoxic period, 4 hours of hypoxia
Procedure: Endothelial cell culture and exposure of cells to H or H/R. Human umbilical vein ECs were prepared from umbilical cords and grown in culture by the method of Jaffe (16) as modified by Thornton (17). Experiments utilized confluent ECs (passages 1-4) grown in Medium 199 supplemented with fetal bovine serum (15%; Gemini, Calabasas, Calif.), human serum (5%; Gemini), endothelial growth supplement (Sigma, St. Louis, Mo.), heparin (90 μg/ml; Sigma) and antibiotics, as described (17). When ECs achieved confluence, experiments were performed by placing cultures in an environmental chamber (Coy Laboratory Products, Ann Arbor, Mich.) which provided a controlled temperature (37° C.) and atmosphere with the indicated amount of oxygen, carbon dioxide (5%) and the balance made up of nitrogen. Use of this chamber for cell culture experiments has been described previously (15,18). During exposure of ECs to hypoxia (for a maximum of 16 hours), the oxygen tension in the culture medium was 14-18 torr and there was no change in the medium pH. Reoxygenation was performed by placing ECs in an ambient atmosphere containing carbon dioxide (5%) at 37° C.
Measurement of Weibel-Palade body exocytosis: ECs were plated into 24 well plates, rinsed 3 times with Hank's balanced salt solution, and then exposed to hypoxia or to normoxia for the indicated durations. For experiments in which vWF was measured, cells were maintained in serum-free medium. All other EC experiments were performed in the EC growth medium described above. For measurement of vWF, 200 μL aliquots of culture supernatant was removed at the indicated times, and a commercially available ELISA (American Diagnostica, Greenwich, Conn.), based on a polyclonal goat anti-human vWF antibody, was performed on duplicate specimens, with a standard curve generated using purified human vWF antigen supplied by the same vendor. EC P-selectin expression was determined by measuring the specific binding of a murine monoclonal anti-human P-selectin antibody (WAPS 12.2 clone, Endogen, Cambridge, Mass.; this is an IgGl which recognizes a calcium sensitive epitope and blocks P-selectin dependent neutrophil adhesion. Antibody was radiolabelled with ^125I by the lactoperoxidase method (19) using Enzymobeads (Bio-Rad, Hercules, Calif.), stored at 4° C. and used within one week of labelling. Binding assays were performed on HUVECs plated on 96 well plates, in which fresh M199 with 0.1% bovine serum albumin (Sigma, St. Louis, Mo.) was added immediately prior to each experiment. Cells were placed in a humidified environment at 37° C., and exposed to normoxia or H (in the presence or absence of 50 μM probucol, as indicated, Sigma) for the indicated durations. Cell monolayers were fixed for 15 min. with 1% paraformaldehyde^10 (cells exposed to H were fixed while still within the hypoxic environment), visually inspected to ensure that the monolayers remained intact, and washed twice with HBSS containing 0.5% bovine serum albumin (HBSS/A). Monolayers were then exposed to 10^5 cpm of ^125I-labelled anti-P-selectin antibody (WAPS 12.2) in the presence of 200 μg/mL of either unlabelled blocking antibody (WAPS 12.2) or nonblocking anti-P-selectin IgG of the same isotype (anti-GMP-140, AC1.2 clone, Becton-Dickinson, San Jose, Calif.) (20,21). After binding for 1 hour at 37° C., monolayers were washed 4 times with HBSS/A, and bound antibody was eluted with 1% triton X-100 in PBS (200 μL/well) and counted. […]

[4] = test system: intracellular calcium concentration [Cai]; test: Intracellular calcium by fura-2 fluorescence in hypoxic ECs; format: cell-based, human
Procedure: (§2) Hypoxia or free radicals induce P-selectin (PS) translocation to the endothelial cell (EC) surface, where it participates in neutrophil (PMN) adhesion during reperfusion. To explore a mechanism whereby nitrovasodilators may attenuate postischemic leukosequestration, we tested whether stimulating the NO/cGMP pathway could attenuate surface PS expression in hypoxic human umbillical vein ECs. […] Under similar conditions, addition of the NO donor 3-morpholino sydnonimine (SIN-1, 0.1 mM) or the cGMP analog 8-Bromo-cGMP (cGMP, 10 nM) caused a reduction in vWF release; Control vWF, 11±0.4 mU/mL; SIN-1, 9.1±0.3 mU/mL; cGMP, 9.7±0.2 mU/mL; p<0.005 for both SIN-1 or cGMP vs Control.

[5] = test system: P-selectin; test: Surface P-selectin expression on hypoxic HUVECs (radiolabeled anti-PS antibody binding); format: cell-based, human
Procedure: as §2

[6] = test system: hypoxic HUVECs; test: Immunofluorescent adherence assay, HL60 binding to hypoxic HUVECs; format: cell-based, human
Procedure: as §2

[7] = test system: hypoxic human umbillical vein ECs; test: vWF release from hypoxic HUVECs, NO/cGMP pathway; format: cell-based; settings: hypoxia pO2<20 Torr 4 hours; SIN-1 0.1 mM, 8-Bromo-cGMP 10 nM
Procedure: as §2

SMILES	hypoxia-induced endothelial P-selectin expression [1]	inhibition at 10 µg/mL [2] [%]	decrease of hypoxia-induced vWF release [3] [%]	hypoxia-increased intracellular calcium concentration [Cai] [4]	PS expression in calcium-free medium ([5]; ECs in calcium-free medium)	decrease of surface PS expression vs controls ([5]; hypoxia 4 hours, SIN-1 0.1 mM, 8-Bromo-cGMP 10 nM) [%]	decrease of HL60 binding to hypoxic HUVECs vs controls [6] [%]	vWF release [7] [mU/mL]
C[C@@H]1C[C@@H]([C@H](O)CC2CC(=O)NC(=O)C2)C(=O)[C@@H](C)C1 [cycloheximide]	hypoxia still increased endothelial P-selectin expression, albeit at reduced levels	> 85	12.5	–	–	–	–	–
Nc1nc2c(nc(Br)n2[C@@H]2O[C@@H]3COP(=O)(O)O[C@H]3[C@H]2O)c(=O)[nH]1 [cGMP, 8-Bromo-cGMP]	–	–	–	could be blocked	Neither SIN-1 nor cGMP could further reduce PS expression	48	86	9.7±0.2
